Experimental data taken from ChEMBL document CHEMBL1156245, “Structure-activity relationships for substrate-based inhibitors of human complement factor B” (J Med Chem, 2009).
Values belong to the molecule of their own block, whether it stands above or below them. Peptide text beside a SMILES is read from it.

Columns and labels:
Complement factor B [1] = biological target: T1, Complement factor B (Homo sapiens, UniProt P00751); assay: Inhibition of human complement factor B treated for 5 mins before addition of substrate Ac-SHLGLAR-pNA at pH 9.5 by chromogenic assay
Complement factor B [2] = biological target: T1, Complement factor B; assay: Inhibition of human complement factor B at pH 9.5 by chromogenic assay
[3] = Inhibition of human alternative complement system-mediated membrane attack complex formation by ELISA
[4] = Inhibition of alternative complement system-mediated hemolysis of rabbit erythrocytes assessed as haemoglobin release after 30 mins by UV/vis spectrophotometry; parameters: species or system Oryctolagus cuniculus
Complement factor B [5] = biological target: T1, Complement factor B; assay: Inhibition of human C3 convertase assessed as inhibition of C3a and C3b fragment production at pH 7.4 after 30 mins by SDS-PAGE using 7% (w/v) polyacrylamide gel
Complement factor B [6] = biological target: T1, Complement factor B; assay: Inhibition of human C3 convertase assessed as inhibition of C3a and C3b fragment production at pH 7.4 after 30 mins by SDS-PAGE
[7] = Solubility in water; assay type: physicochemical; settings: buffer
[8] = Metabolic stability in human serum assessed as compound remaining at 1 mM after 3 hrs by LC-MS analysis; assay type: ADME, cell-free; settings: read-out: Stability
[9] = Inhibition of cobra C3/C5 convertase assessed as inhibition of C3a and C5a fragment formation; parameters: species or system Naja naja
Complement factor B [10] = biological target: T1, Complement factor B; assay: Inhibition of human C3/C5 convertase assessed as inhibition of C3 cleavage

T1 sequence (P00751 whole entry): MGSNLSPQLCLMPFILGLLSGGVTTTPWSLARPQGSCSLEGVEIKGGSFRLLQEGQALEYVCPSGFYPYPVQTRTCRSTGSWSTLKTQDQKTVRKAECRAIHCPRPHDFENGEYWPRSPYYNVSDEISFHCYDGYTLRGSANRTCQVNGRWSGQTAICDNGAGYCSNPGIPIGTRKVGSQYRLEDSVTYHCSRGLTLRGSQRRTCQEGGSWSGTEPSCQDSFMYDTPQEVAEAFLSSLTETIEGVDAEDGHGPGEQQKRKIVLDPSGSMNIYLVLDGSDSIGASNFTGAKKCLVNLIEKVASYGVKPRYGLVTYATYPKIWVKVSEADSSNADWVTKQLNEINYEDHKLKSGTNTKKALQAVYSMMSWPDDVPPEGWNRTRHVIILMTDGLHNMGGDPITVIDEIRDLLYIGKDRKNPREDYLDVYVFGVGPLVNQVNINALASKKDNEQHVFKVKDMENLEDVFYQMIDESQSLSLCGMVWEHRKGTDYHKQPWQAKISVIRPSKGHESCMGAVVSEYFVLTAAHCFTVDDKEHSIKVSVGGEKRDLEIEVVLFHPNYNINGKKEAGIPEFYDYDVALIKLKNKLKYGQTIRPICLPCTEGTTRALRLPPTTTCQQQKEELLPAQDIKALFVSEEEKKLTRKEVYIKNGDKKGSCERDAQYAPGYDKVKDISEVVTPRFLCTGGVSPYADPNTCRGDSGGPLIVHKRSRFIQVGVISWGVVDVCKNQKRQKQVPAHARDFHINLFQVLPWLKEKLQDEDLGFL

Molecule: CC(C)C[C@H](NC(=O)[C@H](CCC1CCCCC1)NC(=O)[C@H](CC(C)C)NC(=O)[C@H](Cc1cnc[nH]1)NC(=O)[C@@H](N)CO)C(=O)N[C@@H](C)C(=O)N[C@@H](CCCN=C(N)N)C(=O)O (HELM PEPTIDE1{S.H.L.[O=C([C@H](CCC1CCCCC1)N[*:1])[*:2]].L.A.R}$$$$V2.0)
- IC50 (Complement factor B [1]): 5 µM

Molecule: CC(=O)N[C@@H](CO)C(=O)N[C@@H](Cc1cnc[nH]1)C(=O)N[C@@H](CC(C)C)C(=O)NCC(=O)N[C@@H](CC(C)C)C(=O)N[C@@H](C)C(=O)N[C@@H](CCCN=C(N)N)C(=O)Nc1ccc([N+](=O)[O-])cc1 (HELM PEPTIDE1{[ac].S.H.L.G.L.A.R.[O=[N+]([O-])c1ccc(N[*:1])cc1]}$$$$V2.0)
- IC50 (Complement factor B [2]): 19 µM

Molecule: Ac-FHLGLAR-OH
- IC50 (Complement factor B [1]): 23 µM

Molecule: CC(=O)N[C@@H](Cc1ccc(F)cc1)C(=O)N[C@@H](Cc1cnc[nH]1)C(=O)N[C@@H](CC(C)C)C(=O)NCC(=O)N[C@@H](CC(C)C)C(=O)N[C@@H](C)C(=O)N[C@@H](CCCN=C(N)N)C(=O)O (HELM PEPTIDE1{[ac].[O=C([C@H](Cc1ccc(F)cc1)N[*:1])[*:2]].H.L.G.L.A.R}$$$$V2.0)
- IC50 (Complement factor B [1]): 13 µM

Molecule: Ac-RLLLAR-OH [listing 1 of 2 here]
- IC50 [3]: 1 µM
- IC50 [4]: 20.8 µM
- inhibition (Complement factor B [5]): Dose-dependent effect

Molecule: CC(=O)N[C@@H](CC(C)C)C(=O)N[C@@H](CC(C)C)C(=O)N[C@@H](C)C(=O)N[C@@H](CCCN=C(N)N)C(=O)O (Ac-LLAR-OH)
- IC50 (Complement factor B [1]): 12 µM

Molecule: N=C(N)Nc1ccc(C(=O)Oc2ccc3cc(C(=N)N)ccc3c2)cc1
- IC50 [9]: 4 µM

Molecule: CC[C@H](C)[C@H](N)C(=O)N[C@H]1CSSC[C@@H](C(=O)N[C@H](C(N)=O)[C@@H](C)O)NC(=O)[C@H](CCCN=C(N)N)NC(=O)[C@H](Cc2cnc[nH]2)NC(=O)[C@H](Cc2cnc[nH]2)NC(=O)CNC(=O)[C@H](Cc2c[nH]c3ccccc23)NC(=O)[C@H](CC(=O)O)NC(=O)[C@H](CCC(N)=O)NC(=O)[C@H](C(C)C)NC(=O)[C@H](C(C)C)NC1=O [COMPSTATIN]
- IC50 (Complement factor B [10]): 12 µM

Molecule: Ac-HLLLAR-OH
- IC50 (Complement factor B [1]): 3 µM

Molecule: Ac-SHLLLAR-OH
- IC50 (Complement factor B [1]): 4 µM

Molecule: Ac-SHLGLAR-OH
- IC50 [3]: 21.1 µM
- IC50 [4]: 243 µM
- IC50 (Complement factor B [1]): 19 µM
- remaining at 3 h, 1000 µM [8]: 80%

More lines, main results first:

- IC50 (Complement factor B [1]): 3 µM
Molecule: Ac-LLLAR-OH

- IC50 [3]: 0.32 µM
- IC50 (Complement factor B [1]): 0.25 µM
- inhibition (Complement factor B [5]): Dose-dependent effect
- IC50 (Complement factor B [6]): 10 µM
Molecule: CC(=O)N[C@@H](CCCNC(=N)N)C(=O)N[C@@H](CC(C)C)C(=O)N[C@@H](CC(C)(C)C)C(=O)N[C@@H](CC(C)C)C(=O)N[C@@H](C)C(=O)N[C@@H](CCCNC(=N)N)C(=O)O (HELM PEPTIDE1{[ac].R.L.[CC(C)(C)C[C@H](N[*:1])C(=O)[*:2]].L.A.R}$$$$V2.0)
- IC50 [4]: 9.7 µM

- IC50 (Complement factor B [1]): 0.6 µM
- IC50 (Complement factor B [6]): 50 µM
- solubility [7]: Soluble
- remaining at 3 h, 1000 µM [8]: 80%
Molecule: Ac-RLLLAR-OH [listing 2 of 2 here]

- IC50 (Complement factor B [1]): 5 µM
Molecule: CCCC[C@H](NC(=O)[C@H](Cc1cnc[nH]1)NC(=O)[C@H](CO)NC(C)=O)C(=O)N[C@@H](CC(C)C)C(=O)N[C@@H](CC(C)C)C(=O)N[C@@H](C)C(=O)N[C@@H](CCCNC(=N)N)C(=O)O (HELM PEPTIDE1{[ac].S.H.[Nle].L.L.A.R}$$$$V2.0)

- IC50 (Complement factor B [1]): 7 µM
Molecule: Ac-RLLLGR-OH
